We go through 4 molecules from patent publication US12083079B2, “Sphingoid compounds for prophylaxis and/or therapy of a viral infection” (priority 2018, dated 2024).

The subject of data set [1] is lymphocytic choriomeningitis virus (LCMV). Type of data set: cell-based.
Data set [2] has the same test system. Type of data set: cell-based. The source holds these as a separate data set.
The test system of data set [3] is vesicular stomatitis virus (VSV). The class given is cell-based.
For data set [4], the system named is HIV-1 JR-CSF. Put plainly: HIV-P24 ELISA in supernatant of infected human T cells. Type of data set: cell-based. As to conditions: 50 μM, after 7 days. (An ELISA detects its analyte on a solid surface through an enzyme-linked reagent.)
Data set [5] relates to rhinovirus strain RV14 (major strain). Put plainly: Rhinovirus RV14 infection of Hela cells, dead cells by Trypan Blue. The class given is cell-based. The settings on record: added 10 min before or 60 min or 240 min after infection, 4 days.
In data set [6] the test system is rhinovirus strain 2 (RV2). Put plainly: Intranasal RV2 infection of wild-type mice, Hela cell death bioassay of nasal bone. The settings on record: 10 μL of 100 μM intranasal, 10 min prior to or 1, 4 or 8 hrs after infection, sacrificed after 24 hrs. The class given is in vivo. On the procedure:
Mice were infected with 10^3 PFU rhinovirus strain 2 (RV2) in 10 μL PBS. The virus was applied directly into the nose using a blunt ended, plastic coated 30 g needle, that was inserted into the nose approximately 2 mm. Sphingosine (SPH) was applied into the nose of the wild-type mice at a concentration of 100 μM solution in PBS in a volume of 10 μL. Sphingosine was applied either 10 min prior to rhinovirus infection (b.i.) or 1 hr, 4 hrs and 8 hrs after the infection (a.i.). Controls received the solvent, i.e. octylglucopyranoside (OGP) at the same concentration than used when sphingosine was applied, or were left untreated, but infected. Solutions were applied as in 3.2. Mice were sacrificed after 24 hrs, the nasal bone was removed and incubated for 4 days with Hela cells in a 24 well plate. If the nasal epithelial cells are infected, rhinovirus will be released due to the cytopathic effect of the virus and the in vivo infection can then be determined and quantified by measuring cell death of Hela cells as a bioassay. To this end, dead cells were collected, adherent cells were trypsinized, the fractions were combined, washed twice in H/S (20 mM HEPES, 132 mM NaCl, 5 mM KCl, 1 mM CaCl2), 0.7 mM MgCl2, 0.8 mM MgSO4, pH 7.4), stained with Trypan Blue (0.2% final concentration) and dead cells were counted in aliquots of 500 cells as above. […]

Data set [7] has as its system epithelial cells of the nose. Put plainly: Dead nasal epithelial cells after intranasal sphingosine (Trypan Blue). Type of data set: in vivo. As to conditions: wild-type mice, 10 μL of 10 μM or 100 μM solution intranasal; 8 hours or 24 hours. Here is the method: Sphingosine was applied into the nose of wild-type mice as in 3.2. 10 μL of a 10 μM or a 100 μM sphingosine (SPH) solution was administered into the nostrils of wild-type mice. Controls received the solvent, i.e. octylglucopyranoside at the same concentration used when sphingosine was applied, or were left untreated. Mice were anesthetized prior to application of sphingosine. Mice were sacrificed after 8 hours or 24 hours, the nasal bone was removed and incubated in Trypsin solution for 10 min to release and isolate epithelial cells. Cells were washed twice in H/S (20 mM HEPES, 132 mM NaCl, 5 mM KCl, 1 mM CaCl2), 0.7 mM MgCl2, 0.8 mM MgSO4, pH 7.4), stained with Trypan Blue (0.2% final concentration) and dead cells were counted in aliquots of 500 cells. Given is the percentage of dead cells±SD from 4 independent experiments each; *p<0.05, ANOVA.

The subject of data set [8] is rhinovirus 14 (RV14). Put plainly: RV14 infection of freshly isolated human epithelial cells, Hela cytotoxicity readout. Type of data set: cell-based. As to conditions: 10 μM or 20 μM, 24 hrs. Here is the method: (§1) 10^4 PFU of Rhinovirus 2 or 14 (RV2, RV14) were incubated with freshly isolated human epithelial cells for 24 hrs in the presence of 10 μM or 20 μM sphingosine (SPH) or the corresponding concentration of the solvent octylglucopyranoside (OGP), the cells were pelleted, supernatants completely removed, the cell pellets resuspended in PBS and added to Hela cells. Cells were incubated for 3 days and cytotoxicity as measurement for virus titers was determined. Shown is the mean±SD, n=4, *p<0.001 ANOVA.

In data set [9] the test system is rhinovirus 2 (RV2). Put plainly: RV2 infection of freshly isolated human epithelial cells, Hela cytotoxicity readout. The class given is cell-based. As to conditions: 10 μM or 20 μM, 24 hrs. On the procedure: as §1
Data set [10] concerns RV1b. Put plainly: Binding of sphingosine to RV1b immobilized to agarose beads, remaining sphingosine by kinase assay. More on the design: species or system rhinovirus. As to conditions: 250 μM sphingosine in PBS (pH 7.0), 4 hrs at 4° C. Here is the method: As a complement to the above study, RV1b (obtained from ATCC) were immobilized to agarose beads and tested for binding of sphingosine (SPH). To this end, we incubated 1 μg/ml anti-RV1b antibodies with 10^6 CFU RV1b for 1 h at 4° C. in H/S, added 50 μL agarose protein A/G beads (Santa Cruz Inc.), incubated for an additional 1 h at 4° C. and washed the immobilized precipitates 5-times in H/S. We resuspended the beads in 500 μL PBS (pH 7.0) containing 250 μM sphingosine. Samples were incubated for 4 hrs at 4° C., pelleted and aliquots of the supernatants were added to 50 mM HEPES (pH 7.4), 250 mM NaCl, 30 mM MgCl2, 0.001 units sphingosine kinase (R&D), 1 mM ATP and 10 μCi [^32P]γATP. The kinase reaction was performed for 1 hr at 30° C., stopped by addition of 20 μl 1N HCl, 800 μl CHCl3/CH3OH/1N HCl (100:200:1, v/v/v), 240 μl CHCl3 and 2 M KCl. Phases were separated, the lower phase was collected, dried, dissolved in 20 μL of CHCl3:CH3OH (1:1, v/v) and separated on Silica G60 thin layer chromatography (TLC) plates using CHCl3/CH3OH/acetic acid/H2O (90:90:15:5, v/v/v/v). The TLC plates were exposed to radiography films, spots were removed from the plates, and the incorporation of [^32P] into sphingosine measured by liquid scintillation counting. Sphingosine was determined using a standard curve of C18-SPH. […]

Data set [11] has as its system Hela cells. As to conditions: uninfected Hela cells, 10 μM or 20 μM.
In data set [12] the test system is rhinovirus strain RV2 (minor strain). The data set can be described thus: Rhinovirus RV2 infection of Hela cells, dead cells by Trypan Blue. The class given is cell-based. The settings on record: added 10 min before or 60 min or 240 min after infection, 4 days.
A short description of data set [13]: Surface sphingosine in nasal mucosa after intranasal application, in situ sphingosine kinase assay. The class given is in vivo. The settings on record: wild-type mice. On the procedure: Sphingosine (SPH) was applied into the nose of wild-type mice and the concentration of sphingosine on the epithelial cell surface was determined after 1, 4 and 8 hrs (a.i.: after injection of sphingosine). To this end, 10 μl, of a 10 μM or a 100 μM sphingosine solution was applied into the nostrils of wild-type mice. Controls received the solvent, i.e. octylglucopyranoside at the same concentration used when sphingosine was applied, or were left untreated. Mice were slightly and very briefly anesthetized with ether. For the intranasal application we used a blunt-end 30 g needle that was covered with a thin plastic film. The blunt-ended needle was inserted into the nostrils approximately 2 mm. Mice were sacrificed after the indicated time, the nasal bone was removed, placed on a 30° C. pre-warmed plastic plate and an area of 2 mm×2 mm was immediately incubated with 0.001 units of sphingosine kinase 1 (#6068-SK-010, R&D) in 4 μl of 150 mM sodium acetate (pH 7.4), 1 μM ATP, and 10 μCi [^32P]γATP/sample. Controls were incubated with the same buffer without sphingosine kinase or were left untreated. […] The TLC plates were analyzed with a phosphoimager. Surface sphingosine levels were determined with a standard curve of C18-sphingosine. […]

As to `Oc1ccc(Nc2nc(-c3ccc(Cl)cc3)cs2)cc1` [SKII, 2-(p-hydroxyanilino)-4-(p-chlorophenyl)thiazole], in [1], the “virus-infected cells by immunofluorescence” value is on record as “inhibits the spreading of the virus”.

For the molecule sphingomyelinase, in data set [2], the “virus production (infectious LCMV particles in the supernatant)” value is “inhibits the propagation of LCMV”. Further, the number of plaques entry in [3] is listed as “inhibits the propagation of VSV”.

Consider MP A08, for which, in [4], the “amount of HIV-P24 in the supernatant” value is “prevents the propagation of HIV”.

Turning to `CCCCCCCCCCCCC/C=C/[C@@H](O)[C@@H](N)CO` [sphingosine, (2S,3R,4E)-2-amino-4-octadecene-1,3-diol], the “infection with RV14 (percentage of dead cells)” value in data set [5] (10 μM) and in [5] (20 μM) was “prevented the infection” in each case. For the same molecule, the “infection with RV2 in vivo (percentage of dead Hela cells, bioassay)” value in data set [6] was “prevented”. In addition, the “toxic effects (percentage of dead nasal epithelial cells)” value in data set [7] is “no toxic effects on epithelial cells of the nose”. The “infection of human epithelial cells by RV14 (cytotoxicity as measurement for virus titers)” value in data set [8] is on record as “abrogates infection”. Also, the “infection of human epithelial cells by RV2 (cytotoxicity as measurement for virus titers)” value in [9] is “abrogates infection”. For the same molecule, in [10], the “binding of sphingosine to RV1b-coupled agarose beads (remaining sphingosine in the supernatant)” value is on record as “efficiently bind sphingosine”. Also, the “effect of sphingosine itself on the cells (percentage of dead cells)” value in data set [11] is recorded as “had no effect on the cells”. Moreover, the “infection with RV2 (percentage of dead cells)” value in data set [12] (10 μM) and in data set [12] (20 μM) was “prevented the infection” in each case. The “virus production (infectious LCMV particles in the supernatant)” value in data set [2] is reported as “inhibits the propagation of LCMV”. In addition, the “surface sphingosine concentration in nasal mucosa” value in data set [13] (10 μl of 10 μM or 100 μM solution into the nostrils, 1, 4 and 8 hrs) is reported as “dose-dependent accumulation of sphingosine in the mucosa”. Besides, in [13] (washing prior to the in situ kinase assay), the “surface sphingosine concentration after washing the mucosa in PBS” value is given as “reduces sphingosine accumulation”.
